These results are taken from US20260216177A1, “CO-DRUG, CO-ADMINISTRATION, AND SEQUENTIAL ADMINISTRATION OF SELECTIVE TTR LIGAND AND C20-D3-RETINOL FOR ELIMINATION OF MECHANISM-BASED OCULAR ADVERSE EFFECTS IN TREATING MACULAR DEGENERATION AND TTR AMYLOIDOSIS” (The Trustees of Columbia University in the City of New York, priority 2023, published 2026).

The conditions of data set [1]: long-term use in cancer patients; cited from earlier work.
For data set [2] the following is noted: Phase 2, dry AMD patients; no ocular AEs with placebo; cited from earlier work.
The next data set has as its target RBP4 (Homo sapiens, UniProt P02753). To be noted: cited from earlier work.
Another data set has as its system serum RBP4. To be noted: mice; cited from earlier work.
Another data set concerns the target TTR tetramers (Homo sapiens, UniProt P02766). To be noted: cited from earlier work.
The conditions of data set [3]: in vivo; cited from earlier work.
In the next data set the test system is Balb/c mice. The data set is described as follows: Retinal function by electroretinography (scotopic ERG a-wave) in treated Balb/c mice. The class given is in vivo. To be noted: 1.89 log cd*s/m2 light intensity; 25 mg/kg daily oral, 10 days.
Another data set concerns rhodopsin. The data set is described as follows: Rhodopsin measured spectrophotometrically in retinal extracts of treated Balb/c mice. The class given is in vivo. To be noted: Balb/c (wild-type) mice, 25 mg/kg daily oral, 10 days. The procedure: Thus, ACPHS-14 was used as a representative “first component” of the present disclosure in order to assess the feasibility of using β-carotene as the “second component” in the co-drug strategy. Accordingly, an experiment was conducted to determine whether partial reduction in functional rhodopsin (opsin with conjugated 11-cis-retinal) induced by oral ACPHS-14 in mice can be compensated by co-administration with β-carotene. An experiment was also conducted to determine whether co-administration of ACPHS-14 and β-carotene can restore retinal function as can be assessed by electroretinography (ERG). It was previously reported that ACPHS-14 can induce a pronounced reduction in serum RBP4 along with stabilization of TTR tetramers (Cioffi, C. L. et al. 2021).
The experiments were conducted in Balb/c mice. Three groups of mice were used: control untreated mice; mice treated with ACPHS-14; and mice treated with the ACPHS-14 plus β-carotene combination. […] Following compound dosing, retinal function in the mice was assessed by ERG as previously described (Racz, B. et al. 2018). […] Rhodopsin was measured spectrophotometrically in the retinal extracts using a previously published protocol (Racz, B. et al. 2018).

A further data set has as its system Abca4-/- mouse model. To be noted: cited from earlier work.
For data set [4] the following is noted: in vitro; cited from earlier work.
The conditions of data set [5]: ATTR-CM patients, Phase III; cited from earlier work.
For data set [6] the following is noted: cited from earlier work.
For data set [7] the following is noted: cited from earlier work. The source holds these as a separate data set.
The conditions of data set [8]: patients treated for TTR amyloidosis; cited from earlier work.

Entries after “also recorded” stand apart in the source; their conditions may differ.

As for `CC1=C(/C=C/C(C)=C/C=C/C(C)=C/C(=O)Nc2ccc(O)cc2)C(C)(C)CCC1` [fenretinide], the “yearly prevalence of transient and reversible ocular AEs such as diminished dark adaptation” value in data set [1] is on record as 5.8-6.7%. The “drug-treated patients with reversible reduction in dark adaptation” value in [2] is reported as ~ 10%.

`Cc1n[nH]c(C)c1N1CCN(c2cc(C(=O)O)ccc2F)CC1` [ACPHS-14]: the “competition with retinol binding to RBP4” value on RBP4 is “does not compete with retinol binding to RBP4”. Also, the RBP4-lowering efficacy entry in the data set on serum RBP4 is reported as “excellent RBP4-lowering efficacy; also recorded: significantly decreasing the concentration of serum RBP4”. The “stabilization of TTR tetramers” value on TTR tetramers was “inducing stabilization of TTR tetramers”. Moreover, the oral bioavailability result in [3] was “orally bioavailable”. Further, the “reduction of scotopic ERG a-wave amplitude in comparison to untreated mice” value with Balb/c mice was determined as 45%. Besides, the “rhodopsin in comparison to untreated mice” value with rhodopsin is recorded as “significantly reduced rhodopsin”. The bisretinoid reduction result in the data set with Abca4-/- mouse model (Abca4-/- mouse model) was “excellent bisretinoid reduction”.

`[2H]C([2H])([2H])C(/C=C/C=C(C)/C=C/C1=C(C)CCCC1(C)C)=C\C=O` [C20-D3-retinaldehyde]: in data set [4], the “rate of dimer formation relative to unlabeled retinaldehyde (times less rapidly)” value is given as 12 times and the “reduction of bisretinoid A2E formation” value is reported as 7 fold.

As for `O=C(O)c1ccc2nc(-c3cc(Cl)cc(Cl)c3)oc2c1` [compound 3, tafamidis], in data set [5], the “reduction of the rate of cardiovascular-related hospitalizations compared to placebo controls” value is reported as 32% and the “reduction of the risk of death compared to placebo controls” value was 30%. Besides, in data set [6], the “patients who do not respond” value is “Approximately 30%”.

Turning to `[2H]C([2H])([2H])C(/C=C/C=C(C)/C=C/C1=C(C)CCCC1(C)C)=C\COC(C)=O` [C20-D3-retinyl acetate], the “inhibition of bisretinoid synthesis and normalization of complement system dysregulation in the retina” value in the data set with Abca4-/- mouse model (Abca4-/- mice, model of Stargardt disease (STGD1)) was “effective”.

In the case of `CC(=O)N1CCc2c(C(=O)N3CCC(c4ccc(F)c(F)c4C(F)(F)F)CC3)n[nH]c2C1` [Tinlarebant], the “ocular adverse effects in a subset of patients” value in [7] is on record as “asymptomatic delayed dark adaptation (measured only instrumentally) or symptomatic xanthopsia”.

patisiran: the “ocular symptoms in clinical use” value in [8] is “symptoms of night blindness in a subset of patients”.
